Data published in paper PMC8780768 (Life, 2022).
Where “and” joins values, the source holds several entries; their conditions need not be identical. Equal entries are not always repeated. Where two headings read alike, the source gives them in different places.

Experiments:
Assay type in all cases: cell-based
GABA-ρ1 receptors [1] = biological target: T1, GABA-ρ1 receptors (Homo sapiens, UniProt P24046); experiment: Two-electrode voltage-clamp, co-application of ligand with GABA EC50 at GABA-ρ1 receptors (additive/inhibition); conditions: for GABA-ρ1 Additive/Inhibition Hill slope: co-application curve with GABA EC50
T1 construct: expressed in transfected cells; host or cells: Xenopus laevis oocytes injected with cRNA
Procedure: (§1) The activity of receptors was tested by recording whole cell currents using the two-electrode voltage clamp technique as previously reported. In brief, fabricated microelectrodes prepared with a micropipette puller (Sutter instruments, Novato, CA, USA), were filled with 3 M KCl solution (0.3–2.3 MΩ). Oocytes were immersed with ND96 buffer in the cell chamber at approximately 5 mL/min rate. The microelectrode impaled cells were clamped at −60 mV (voltage), and the currents elicited in response to the application of ligand/s was recorded using a Power Lab 2/25 analogue–digital data acquisition system (AD Instruments, Sydney, NSW, Australia), a Geneclamp 500 B amplifier (Axon Instrument, Foster City, CA, USA), and Lab Chart version 5.0.2 program (ADInstruments, Sydney, Australia).
(§2) Ligands were applied into the perfusate until a peak response (maximal) was reached. All stock solutions of the ligands were freshly made on the day of experiments. Solutions of ligands dissolved in DMSO were standardized to contain less than 0.8% DMSO in the final perfusate solution to prevent any alteration in the recordings. Perfusates containing these ligands (chemicals) were freshly prepared before each application. The dose–response curves of ligands were obtained by increasing the concentrations of applied agonists on oocytes until the maximum current reached. […] All experiments were conducted using at least two batches of oocytes.
(§3) I = Imax [A]^nH / (EC50^nH + [A]^nH)(1) where I is the current response, referring to a known concentration of agonist; Imax is the maximum current obtained; [A] is the agonist concentration; EC50 is the concentration of agonist/partial agonist at which the current response is half maximal; and nH is the Hill coefficient.
(§4) The equations for bell-shaped and biphasic curves are embedded in GraphPad PRISM 8.02.
(§5) A p value < 0.05 was considered statistically significant. […] Significance assigned * if p < 0.05, ** if p < 0.01, *** if p < 0.001 and **** if p < 0.0001.

GABA-ρ2 receptors [2] = biological target: T2, GABA-ρ2 receptors (Homo sapiens, UniProt P28476); experiment: Two-electrode voltage-clamp, agonist dose–response at GABA-ρ2 receptors expressed in Xenopus oocytes; conditions: for GABA-ρ2 Efficacy: relative to GABA maximal response
T2 construct: expressed in transfected cells; host or cells: Xenopus laevis oocytes injected with cRNA
Procedure: (§6) Ovary lobes were dissected from female Xenopus laevis (South Africa clawed frogs), which were removed as reported previously, in accordance with the National Health and Medical Research Council (NHMRC) of Australia’s ethical guidelines. This procedure is also approved by the University of Sydney’s animal ethics committee (2013/5915). In brief, the females of Xenopus laevis were anaesthetized using 0.17% 3-aminobenzoic acid ethyl ester with 0.02% NaCl for 10–15 min, and a lobe of the ovary was dissected. The lobes were washed with oocyte releasing buffer 2 (OR2: 82.5 mM NaCl, 5 mM HEPES, 2 mM KCl, 1 mM MgCl2.6H2O pH 7.5) and incubated with collagenase A (2 mg·mL^−1 in OR2, Boehringer Mannheim, Mannheim, Germany) for approximately 2 h to separate oocytes from follicular cells and connective tissue. The released oocytes were washed in ND96 solution (96 mM NaCl, 1 mM MgCl2.6H2O, 2 mM KCl, 5 mM HEPES, and 1.8 mM CaCl2 pH 7.5). Stage V–VI oocytes were collected and injected in the cytoplasm using a 15–20 μm diameter tip micropipette (micropipette puller, Sutter Instruments, Novato, CA, USA) and a Nanoject injector (Drummond Scientific Co., Broomall, PA, USA) set to deliver a total of ~15 ng of cRNA.
(§7) The injected oocytes were placed on an oscillator at 18 °C for 2–6 days in ND96 solution, which contained 0.5 mM theophylline, 2.5 mM pyruvate, 50 μg/mL tetracycline, and 50 μg/mL gentamycin.
as §1, §2, §3

GABA-ρ2 receptors [3] = biological target: T2, GABA-ρ2 receptors; experiment: Two-electrode voltage-clamp, co-application of ligand with GABA EC50 at GABA-ρ2 receptors (additive/inhibition)
Procedure: as §1, §2, §3, §4, §5

GABA-ρ1 receptors [4] = biological target: T1, GABA-ρ1 receptors; experiment: Two-electrode voltage-clamp, agonist dose–response at GABA-ρ1 receptors expressed in Xenopus oocytes
Procedure: as §6, §7, §1, §2, §3

[5] = TEVC, Xenopus oocytes, −60 mV, read-out: GABA-ρ2 EC50
[6] = co-application curve with GABA EC50 (800 nM)
[7] = co-applied with GABA EC50 (800 nM), % of GABA EC50 response
[8] = TEVC, Xenopus oocytes, −60 mV, read-out: GABA-ρ1 EC50
[9] = co-applied with GABA EC50, % of GABA EC50 response
[10] = relative to GABA maximal response
[11] = bell-shaped/biphasic co-application curve with GABA EC50

T1 sequence (P24046 22-479): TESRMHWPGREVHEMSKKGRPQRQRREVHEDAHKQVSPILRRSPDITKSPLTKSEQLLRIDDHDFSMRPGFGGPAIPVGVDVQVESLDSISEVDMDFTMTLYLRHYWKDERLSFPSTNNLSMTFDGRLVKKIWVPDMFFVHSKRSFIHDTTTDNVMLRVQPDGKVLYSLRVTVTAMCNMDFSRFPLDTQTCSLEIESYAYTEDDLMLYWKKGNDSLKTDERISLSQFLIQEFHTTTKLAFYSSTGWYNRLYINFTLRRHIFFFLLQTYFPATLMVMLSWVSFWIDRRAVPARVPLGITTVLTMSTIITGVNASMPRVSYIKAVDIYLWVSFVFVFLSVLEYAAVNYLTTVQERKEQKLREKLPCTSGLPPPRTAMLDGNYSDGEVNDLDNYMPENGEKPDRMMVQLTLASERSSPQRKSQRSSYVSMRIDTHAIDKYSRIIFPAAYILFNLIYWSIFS
T2 sequence (P28476 21-465): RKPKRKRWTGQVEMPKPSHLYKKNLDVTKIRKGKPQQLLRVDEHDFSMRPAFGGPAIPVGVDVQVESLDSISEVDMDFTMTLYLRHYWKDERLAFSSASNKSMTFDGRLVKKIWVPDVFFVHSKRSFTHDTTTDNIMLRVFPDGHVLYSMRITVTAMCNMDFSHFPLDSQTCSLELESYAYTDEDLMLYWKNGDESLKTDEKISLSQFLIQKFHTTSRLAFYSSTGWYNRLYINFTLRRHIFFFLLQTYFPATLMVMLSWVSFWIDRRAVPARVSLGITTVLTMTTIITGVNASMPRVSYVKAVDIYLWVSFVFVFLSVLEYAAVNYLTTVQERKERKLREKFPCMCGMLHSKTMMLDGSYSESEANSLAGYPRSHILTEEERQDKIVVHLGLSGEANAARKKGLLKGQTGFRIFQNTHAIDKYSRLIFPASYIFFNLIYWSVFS

| SMILES | GABA-ρ1 Additive/Inhibition Hill slope (GABA-ρ1 receptors [1]) | EC50 (GABA-ρ2 receptors [2]; [5]) [µM] | GABA-ρ2 Efficacy (GABA-ρ2 receptors [2]) [%] | GABA-ρ2 Additive/Inhibition Hill slope (GABA-ρ2 receptors [3]; [6]) | GABA-ρ2 Additive (%) (GABA-ρ2 receptors [3]; [7]) | % of GABA EC50 response when co-applied with 1 µM ligand (GABA-ρ2 receptors [3]; oocytes) [%] | % of GABA EC50 response when co-applied with 10 µM ligand (GABA-ρ2 receptors [3]; oocytes) [%] | EC50 (GABA-ρ1 receptors [4]; [8]) [µM] | GABA-ρ1 Additive (%) (GABA-ρ1 receptors [1]; [9]) | GABA-ρ1 Efficacy (GABA-ρ1 receptors [4]; [10]) [%] | EC50 (GABA-ρ2 receptors [2]) [µM] | GABA-ρ2 Additive (%) (GABA-ρ2 receptors [3]) | EC50 (GABA-ρ1 receptors [4]) [µM] | further results |
| --- | --- | --- | --- | --- | --- | --- | --- | --- | --- | --- | --- | --- | --- | --- |
| NC/C=C/C(=O)O [TACA] | 0.9 ± 0.08 | 0.45 ± 0.4 | 85 | 0.8 ± 0.46 | 140 | 118.4 | 137.5 | 0.6 | – | – | – | – | – | GABA-ρ1 Additive (%) (GABA-ρ1 receptors [1]): 190%; GABA-ρ1 Efficacy (GABA-ρ1 receptors [4]): 95% |
| O=C(O)C1=CCNCC1 [Isoguvacine, isoguvacine] | 0.57 ± 0.25 | 35 | 25 | 0.37 ± 3.1 | 120 | 106.8 ± 2.5 | 110 ± 4.3 | 205 | 135 | 40 | – | – | – | potency at GABA-ρ2 receptors, fold higher than at GABA-ρ1 receptors (GABA-ρ2 receptors [2]; ρ2 versus ρ1): six-fold; efficacy at GABA-ρ1 receptors, fold higher than at GABA-ρ2 receptors (GABA-ρ1 receptors [4]; ρ1 versus ρ2): two-fold |
| O=C(O)Cc1c[nH]cn1 [Imidazole-4-acetic acid, imidazole-4-acetic acid] | 1.3 ± 0.22 | – | 40 | – | – | 94.2 ± 1.4 | 86.25 ± 3.5 | – | 115 | 10 | 0.2 | 110 | 66 | IC50 (GABA-ρ1 receptors [1]): 0.8 µM; efficacy at GABA-ρ2 receptors, fold higher than at GABA-ρ1 receptors (GABA-ρ2 receptors [2]; ρ2 versus ρ1): 100 fold; potency at GABA-ρ2 receptors, fold higher than at GABA-ρ1 receptors (GABA-ρ2 receptors [2]; ρ2 versus ρ1): 4 fold; GABA-ρ2 Additive/Inhibition Hill slope (GABA-ρ2 receptors [3]): 0.87 ± 0.39; IC50 (GABA-ρ2 receptors [3]): 2.4 µM |
| NCCCC(=O)O [GABA] | – | – | – | – | – | – | – | – | – | – | – | – | – | EC50 (GABA-ρ2 receptors [2]; TEVC, Xenopus oocytes, read-out: GABA-ρ2 EC50): 0.8 µM |
| NCCC(=O)O [β-Alanine, β-alanine] | 1.5 ± 0.8 | – | 85 | – | 120 | 108.9 | – | – | 120 | 30 | 560 | – | 400 | % of GABA EC50 response when co-applied with 100 µM ligand (GABA-ρ2 receptors [3]; GABA-ρ2, GABA EC50 800 nM, ligand 100 µM): no significant effect; GABA-ρ2 Additive/Inhibition nH2 (GABA-ρ2 receptors [3]; [11]): 1.6 ± 0.36 |
| NCCCCC(=O)O [5-Aminovaleric acid, 5-amino valeric acid] | 3 ± 0.75 | 36 | 45 | 0.6 ± 0.48 | 110 | 92 | – | 600 | 125 | 3 | – | – | – | IC50 (GABA-ρ1 receptors [1]): 35 µM; IC50 (GABA-ρ2 receptors [3]): 10 µM; % of GABA EC50 response when co-applied with 100 µM ligand (GABA-ρ2 receptors [3]; oocytes): 51.1% |
| NCc1cc(=O)[nH]o1 [Muscimol, muscimol] | – | – | 65 | – | – | 106.9 ± 1.1 | 107.9 ± 3.1 | – | 125 | 80 | 0.65 | 112 | 1.25 | GABA-ρ2 Additive/Inhibition Hill slope (GABA-ρ2 receptors [3]): 0.14 ± 0.48 |
| NCC(=O)O [Glycine, glycine] | – | ~1000 | 70 | – | – | – | – | ~1000 | 170 | 25 | – | 115 | – | % of GABA EC50 response when co-applied with 1 µM ligand (GABA-ρ2 receptors [3]): does not show a significant effect; % of GABA EC50 response when co-applied with 100 µM ligand (GABA-ρ2 receptors [3]): 115.4% and 115%; GABA-ρ2 Additive/Inhibition nH1 (GABA-ρ2 receptors [3]; [11]): 1.8 ± 0.3; GABA-ρ2 Additive/Inhibition nH2 (GABA-ρ2 receptors [3]; [11]): 1.7 ± 0.5 |
| NC/C=C\C(=O)O [CACA] | 0.9 ± 0.44 | 37 ± 12 | 60 | – | – | – | – | 93 ± 5.2 | – | – | – | – | – | GABA-ρ1 Additive (%) (GABA-ρ1 receptors [1]): 160%; effect on GABA EC50 response when co-applied with 1 mM ligand (GABA-ρ2 receptors [3]; GABA-ρ2, GABA EC50, ligand 1 mM, data not shown): does not show any significant effect; GABA-ρ1 Efficacy (GABA-ρ1 receptors [4]): 60% |
